≈ marks a conversion by molar mass, not a printed value.
Assays:
Type in all cases: functional
Candida albicans [1] = experiment: Antimicrobial activity against Candida albicans MTCC 183 assessed as diameter of growth inhibition zone after 48 hr
Klebsiella pneumoniae [2] = experiment: Antimicrobial activity against Klebsiella pneumoniae MTCC 109 assessed as diameter of growth inhibition zone after 24 hr
Escherichia coli [3] = experiment: Antimicrobial activity against Escherichia coli MTCC 739 assessed as diameter of growth inhibition zone after 24 hr
Bacillus cereus [4] = experiment: Antimicrobial activity against Bacillus cereus MTCC 430 assessed as diameter of growth inhibition zone after 24 hr
Proteus vulgaris [5] = experiment: Antimicrobial activity against Proteus vulgaris MTCC 1771 assessed as diameter of growth inhibition zone after 24 hr
Aspergillus fumigatus [6] = experiment: Antimicrobial activity against Aspergillus fumigatus MTCC 343 assessed as growth inhibition after 48 hr by agar streak dilution method; details: MTCC 343, 48 h
Shigella flexneri [7] = experiment: Antimicrobial activity against Shigella flexneri MTCC1457 assessed as diameter of growth inhibition zone after 24 hr
Candida albicans [8] = experiment: Antimicrobial activity against Candida albicans MTCC 183 assessed as growth inhibition after 48 hr by agar streak dilution method; details: MTCC 183, 48 h
Pseudomonas aeruginosa [9] = experiment: Antimicrobial activity against Pseudomonas aeruginosa MTCC 741 assessed as growth inhibition after 24 hr by agar streak dilution method; details: MTCC 741, 24 h
Shigella flexneri [10] = experiment: Antimicrobial activity against Shigella flexneri MTCC1457 assessed as growth inhibition after 24 hr by agar streak dilution method; details: MTCC1457, 24 h
Salmonella typhi [11] = experiment: Antimicrobial activity against Salmonella enterica subsp. enterica serovar Typhi MTCC 733 assessed as growth inhibition after 24 hr by agar streak dilution method; details: MTCC 733, 24 h
Staphylococcus aureus [12] = experiment: Antimicrobial activity against Staphylococcus aureus MTCC 96 assessed as growth inhibition after 24 hr by agar streak dilution method; details: MTCC 96, 24 h
Proteus vulgaris [13] = experiment: Antimicrobial activity against Proteus vulgaris MTCC 1771 assessed as growth inhibition after 24 hr by agar streak dilution method; details: MTCC 1771, 24 h
Aspergillus niger [14] = experiment: Antimicrobial activity against Aspergillus niger MTCC 282 assessed as diameter of growth inhibition zone after 48 hr
Bacillus cereus [15] = experiment: Antimicrobial activity against Bacillus cereus MTCC 430 assessed as growth inhibition after 24 hr by agar streak dilution method; details: MTCC 430, 24 h
Escherichia coli [16] = experiment: Antimicrobial activity against Escherichia coli MTCC 739 assessed as growth inhibition after 24 hr by agar streak dilution method; details: MTCC 739, 24 h
Staphylococcus aureus [17] = experiment: Antimicrobial activity against Staphylococcus aureus MTCC 96 assessed as diameter of growth inhibition zone after 24 hr
Salmonella typhi [18] = experiment: Antimicrobial activity against Salmonella enterica subsp. enterica serovar Typhi MTCC 733 assessed as diameter of growth inhibition zone after 24 hr
Aspergillus fumigatus [19] = experiment: Antimicrobial activity against Aspergillus fumigatus MTCC 343 assessed as diameter of growth inhibition zone after 48 hr
Pseudomonas aeruginosa [20] = experiment: Antimicrobial activity against Pseudomonas aeruginosa MTCC 741 assessed as diameter of growth inhibition zone after 24 hr
Aspergillus clavatus [21] = experiment: Antimicrobial activity against Aspergillus clavatus MTCC 1323 assessed as diameter of growth inhibition zone after 48 hr
Klebsiella pneumoniae [22] = experiment: Antimicrobial activity against Klebsiella pneumoniae MTCC 109 assessed as growth inhibition after 24 hr by agar streak dilution method; details: MTCC 109, 24 h
Aspergillus niger [23] = experiment: Antimicrobial activity against Aspergillus niger MTCC 282 assessed as growth inhibition after 48 hr by agar streak dilution method; details: MTCC 282, 48 h
[24] = system: Mycobacterium tuberculosis; experiment: Antituberculosis activity against Mycobacterium tuberculosis H37Rv assessed as growth inhibition after 12 to 28 days by L-J MIC method; details: for MIC: Mycobacterium tuberculosis, H37Rv
Aspergillus clavatus [25] = experiment: Antimicrobial activity against Aspergillus clavatus MTCC 1323 assessed as growth inhibition after 48 hr by agar streak dilution method; details: MTCC 1323, 48 h

SMILES	diameter of the inhibition zone (DIZ) (Candida albicans [1])	diameter of the inhibition zone (DIZ) (Klebsiella pneumoniae [2])	diameter of the inhibition zone (DIZ) (Escherichia coli [3])	diameter of the inhibition zone (DIZ) (Bacillus cereus [4])	diameter of the inhibition zone (DIZ) (Proteus vulgaris [5])	MIC (Aspergillus fumigatus [6])	diameter of the inhibition zone (DIZ) (Shigella flexneri [7])	MIC (Candida albicans [8])	MIC (Pseudomonas aeruginosa [9])	MIC (Shigella flexneri [10])	MIC (Salmonella typhi [11])	MIC (Staphylococcus aureus [12])	MIC (Proteus vulgaris [13])	diameter of the inhibition zone (DIZ) (Aspergillus niger [14])	MIC (Bacillus cereus [15])	MIC (Escherichia coli [16])	diameter of the inhibition zone (DIZ) (Staphylococcus aureus [17])	diameter of the inhibition zone (DIZ) (Salmonella typhi [18])	diameter of the inhibition zone (DIZ) (Aspergillus fumigatus [19])	diameter of the inhibition zone (DIZ) (Pseudomonas aeruginosa [20])	also measured
CC(=O)N1N=C(c2ccc(Nc3cc(=O)oc4ccccc34)cc2)CC1c1ccc(F)cc1 (stereo not drawn)	16 mm	23 mm	20 mm	22 mm	21 mm	25 µg/mL (≈ 56.6 µM)	20 mm	50 µg/mL (≈ 113 µM)	50 µg/mL (≈ 113 µM)	25 µg/mL (≈ 56.6 µM)	50 µg/mL (≈ 113 µM)	12.5 µg/mL (≈ 28.3 µM)	25 µg/mL (≈ 56.6 µM)	20 mm	12.5 µg/mL (≈ 28.3 µM)	50 µg/mL (≈ 113 µM)	23 mm	18 mm	22 mm	17 mm	diameter of the inhibition zone (DIZ) (Aspergillus clavatus [21]): 20 mm; MIC (Klebsiella pneumoniae [22]): 12.5 µg/mL (≈ 28.3 µM); MIC (Aspergillus niger [23]): 25 µg/mL (≈ 56.6 µM); growth inhibition (GI) [24]: 98%; MIC [24]: 100 µg/mL (≈ 227 µM); MIC (Aspergillus clavatus [25]): 50 µg/mL (≈ 113 µM)
O=C(/C=C/c1ccccc1Br)c1ccc(Nc2cc(=O)oc3ccccc23)cc1	18 mm	14 mm	11 mm	11 mm	<10 mm	100 µg/mL (≈ 224 µM)	12 mm	50 µg/mL (≈ 112 µM)	100 µg/mL (≈ 224 µM)	100 µg/mL (≈ 224 µM)	100 µg/mL (≈ 224 µM)	100 µg/mL (≈ 224 µM)	100 µg/mL (≈ 224 µM)	12 mm	100 µg/mL (≈ 224 µM)	100 µg/mL (≈ 224 µM)	13 mm	11 mm	15 mm	<10 mm	diameter of the inhibition zone (DIZ) (Aspergillus clavatus [21]): 12 mm; MIC (Klebsiella pneumoniae [22]): 100 µg/mL (≈ 224 µM); MIC (Aspergillus niger [23]): 100 µg/mL (≈ 224 µM); growth inhibition (GI) [24]: 97%; MIC [24]: 500 µg/mL (≈ 1120 µM); MIC (Aspergillus clavatus [25]): 100 µg/mL (≈ 224 µM)
COc1ccc(C2CC(c3ccc(Nc4cc(=O)oc5ccccc45)cc3)=NN2C(C)=O)cc1 (stereo not drawn)	19 mm	17 mm	19 mm	15 mm	20 mm	50 µg/mL (≈ 110 µM)	16 mm	50 µg/mL (≈ 110 µM)	50 µg/mL (≈ 110 µM)	100 µg/mL (≈ 221 µM)	100 µg/mL (≈ 221 µM)	100 µg/mL (≈ 221 µM)	50 µg/mL (≈ 110 µM)	21 mm	100 µg/mL (≈ 221 µM)	50 µg/mL (≈ 110 µM)	16 mm	17 mm	18 mm	18 mm	diameter of the inhibition zone (DIZ) (Aspergillus clavatus [21]): 20 mm; MIC (Klebsiella pneumoniae [22]): 100 µg/mL (≈ 221 µM); MIC (Aspergillus niger [23]): 25 µg/mL (≈ 55.1 µM); growth inhibition (GI) [24]: 99%; MIC [24]: 100 µg/mL (≈ 221 µM); MIC (Aspergillus clavatus [25]): 25 µg/mL (≈ 55.1 µM)
